Experimental data as given in PMC12797155 (ACS Pharmacology & Translational Science, 2025).
Values joined by “and” are separate entries in the source; they are usually repeats but may differ in a detail not shown here. Equal values may be shown once.

How the values were obtained:
[1] = target: T1, thrombin (Homo sapiens, UniProt P00734); assay: Michaelis-Menten enzyme kinetic analysis of thrombin in the presence of PAR4 antagonists; assay type: biochemical; design: unit not given here; details: thrombin in the presence of PAR4 antagonist
T1 construct: Alpha-thrombin was ordered from Enzyme Research Laboratories; purchased Enzyme Research Laboratories (South Bend, IN)
Description: (§1) Chromogenic substrate, S-2238, was ordered from DiaPharma (West Chester, OH). Alpha-thrombin was ordered from Enzyme Research Laboratories (South Bend, IN). White, round, clear-bottom 96-well plates were used to run the screen. The plate was read using a BioTek Neo plate reader every minute for 60 min at a wavelength of 405 nm. The substrate control wells were subtracted from the raw counts, and the data was normalized to the thrombin enzyme control wells as a percentage. The percentages were graphed in GraphPad Prism.
To also characterize what type of inhibition was occurring with these compounds, we performed Michaelis–Menten enzyme kinetic analysis. […] This is not a surprising finding, as thrombin is believed to interact with PAR4 only at the active cleft of thrombin. PAR4 lacks the hirudin-like binding domain that PAR1 has, which enables PAR1 to have a higher affinity to thrombin.
2 Thrombin inhibition characterization of PAR4 antagonists. A) Michaelis–Menten plot depicting thrombin enzymatic activity in the presence of various PAR4 antagonists. B) Lineweaver–Burk plot of the Michaelis–Menten plot.

[2] = target: T2, alpha thrombin (Homo sapiens, UniProt P00734); assay: Chromogenic thrombin activity assay with substrate S-2238; assay type: biochemical; details: for inhibition at 0.5 µM: read-out: inhibition of thrombin; for IC50: thrombin activity assay, N = 3, read-out: IC50 against thrombin (S-2238 Thrombin Kinetic Assay)
T2 construct: Alpha-thrombin was ordered from Enzyme Research Laboratories; purchased Enzyme Research Laboratories (South Bend, IN)
Description: as §1, with “Prism. To investigate thrombin inhibition, we utilized a chromogenic assay with a thrombin substrate, S-2238. Thrombin activity was measured by the production of a visible color change to substrate S-2238. Each assay run included a substrate control, where just substrate was added to the well without thrombin enzyme, an enzyme control (EC), which consisted of thrombin without any inhibitor present, and an inhibitor control (IC), which contained a known thrombin inhibitor, Argatroban.” for “Prism.”

[3] = target: T3, PAR4 (Homo sapiens, UniProt Q96RI0); assay: Human platelet flow cytometry assay, PAR4 activation (α-thrombin + vorapaxar); assay type: cell-based; details: human platelets, α-thrombin + vorapaxar; N = 3
T3 sequence (Q96RI0 48-385): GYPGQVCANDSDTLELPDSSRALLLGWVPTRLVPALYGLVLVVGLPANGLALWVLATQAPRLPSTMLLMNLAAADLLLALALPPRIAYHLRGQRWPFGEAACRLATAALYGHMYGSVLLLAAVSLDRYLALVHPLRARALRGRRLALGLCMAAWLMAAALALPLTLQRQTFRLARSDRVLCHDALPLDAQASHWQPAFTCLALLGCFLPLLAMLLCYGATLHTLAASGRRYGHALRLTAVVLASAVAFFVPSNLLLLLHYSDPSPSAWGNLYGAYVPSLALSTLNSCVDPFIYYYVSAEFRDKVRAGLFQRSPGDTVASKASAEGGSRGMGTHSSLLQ
From the text: (§2) Same as described previously.
(§3) In the flow cytometry experiments, thrombin activates PAR4 on human platelets. […] In the flow cytometry assay, human platelets are stimulated with thrombin in the presence of either a PAR4 antagonist (BMS-3) or a PAR1 antagonist (Vorapaxar). This determines the IC50 of the test compound against PAR1 and PAR4 activation.

[4] = test system: PAR4; assay: as above; assay type: cell-based; details: alpha-thrombin flow cytometry assay, human platelets; PAR4 vs PAR1
From the text: as §2, §3

Molecule | Vmax [1] | inhibition at 0.5 µM [2] [%] | IC50 [2] | IC50 [3] [nM] | preference for PAR4 over PAR1 [4]
COc1cccc(-c2nc(NC(=O)c3nn(-c4ccccc4)c4c3CCCC4)n[nH]2)c1 [Compound 32] | 0.09616 |  |  |  | 
Cn1nc(C(=O)Nc2n[nH]c(-c3c(F)cccc3F)n2)cc1C1CC1 [Compound 12] |  | ~70 | ~71 nM and 70.6 nM | ~149 | 
Cc1cc(C(=O)Nc2nc(-c3cccc(OC(F)F)c3)n[nH]2)nn1-c1ccccc1 [Compound 9] | 0.0849 |  |  |  | 
Hirugen [reference compound] |  |  |  |  | no preference for PAR4 over PAR1
O=C(Nc1n[nH]c(-c2ccc(F)cc2F)n1)c1nn(-c2ccccc2)c2c1CCCC2 [Compound 31] | 0.1010 | ~70 | ~1000 nM and 1090 nM | ~160 | 
Cc1nc(NC(=O)c2cc(C(=O)OC(C)(C)C)n(-c3ccccc3)n2)n[nH]1 [Compound 7] | 0.08588 |  |  | 6600 | 
CC1CNc2c(cccc2S(=O)(=O)N[C@@H](CCCNC(=N)N)C(=O)N2CC[C@@H](C)C[C@@H]2C(=O)O)C1 (stereo partly drawn) [Argatroban, reference compound] |  |  |  | 65.2 | no preference for PAR4 over PAR1
COc1ccc2cc(-c3cn4nc(SC)sc4n3)oc2c1 [Compound 6PMJ] | 0.08856 |  |  |  | 
